Literature values in US9592318B2, “Topical analgesic composition” (Animal Ethics Pty Ltd, priority 2005, dated 2017).

Key:
[1] = following injection
significant open wound = conditions: topical, FIG. 2 area '3'

In the case of `CCCCN1CCCCC1C(=O)Nc1c(C)cccc1C` (centres unmarked) [bupivacaine], the duration of action [1] is listed as 6 to 8 h.

For `CCN(CC)CC(=O)Nc1c(C)cccc1C` [Lignocaine], the “duration of anesthesia of open wound” value (significant open wound) is given as “around 30 minutes”.
